From patent publication US20120121723A1, “Antimicrobial Compositions” (priority 2005, published 2012) come the findings set out here.

Read-outs that look alike come from different tables or passages of the source.

The subject of experiment [1] is MRSA. Briefly: MIC by tube dilution and Kull synergy index against MRSA. Particulars: for MIC: Staphylococcus aureus. The experiment is classed as cell-based, Staphylococcus aureus. From the text: (§1) MIC testing and synergistic effects studies. The microorganisms were clinically obtained isolates. Staphylococcus aureus is a clinically significant member of the gram-positive group of bacterial pathogens. It gives rise to serious infections, and can produce bacteremia, endocarditis, and meningitis. Methicillin-resistant strains of Staphylococcus aureus (MRSA) were chosen for evaluation because they are a significant medical problem, particularly in view of the fact that methicillin is a drug of choice for treatment of S. aureus infection in the common penicillin-resistant strains. Escherichia coli was also chosen for evaluation. E. coli is a gram-negative pathogenic enterobacteriaceae, and is commonly used as a model organism for bacteria in general. The E. coli strain O157:H7, one of hundreds of strains of the bacterium E. coli, causes illness in humans.
(§2) All individual components are present in the combination at a starting point of 10,000 μg/mL, or 1% unless otherwise noted in the parenthesis in the attached tables. Combinations are serially diluted to obtain the MIC. […]
(§3) Abbreviations in Tables 2 and 3 are as follows. MIC is the Minimum Inhibitory Concentration. MRSA is Methicillin-resistant Staphylococcus Aureus. E. coli is Escherichia coli. […] Pluronic® F127 is Pluronic® F127 microemulsion.
(§4) The Minimum Inhibitory Concentrations (MIC) were determined using tube dilution sensitivities. […] The cultures were incubated overnight at 37° C. and MICs were recorded. The MIC was determined as the lowest concentration of a combination which prevented visible microorganism growth (e.g., turbidity). A culture growth control without compound and several culture sensitive reference agents were used as positive controls. The assays were performed in triplicate.
(§5) Dilutions of the compositions were added to bacterial growth media (tryptic soy broth) to result in a set of tubes with a concentration range of 0.001 mg/L-1000 mg/L of the combination.
(§6) QB is the ppm (MIC) of active substance B alone which produces an endpoint. QC is the ppm (MIC) of active substance C alone which produces an endpoint. Qa is the ppm (MIC) of active substance A, in the combination, which produces an endpoint. Qb is the ppm (MIC) of active substance B, in the combination, which produces an endpoint. Qc is the ppm (MIC) of active substance C, in the combination, which produces an endpoint. And so on for Qn components.
(§7) If the SI of Qa/QA+Qb/QB+Qc/QC is less than one, synergy is indicated. A value greater than one indicates antagonism. A value equal to one indicates additivity.

For experiment [2], the system named is E. coli. As to the kind of experiment: microbe, parasite or virus in culture. The following applies: for MIC: Escherichia coli. The experiment is classed as cell-based, Escherichia coli.
Source text: as §1, §2, §3, §4, §5, §6, §7

The test system of experiment [3] is resistant E. coli. As to the kind of experiment: Additional synergy testing: combination plus 0.5X MIC of an antibiotic. The experiment is classed as cell-based, Escherichia coli.
[4] abbreviates: Table 2, MIC of Component 3 alone against MRSA.
The mark [5] stands for this setting: Table 3, MIC of Component 1 alone against E. coli, read-out: 1-MIC-.
[6] abbreviates: Table 3, MIC of Component 2 alone against E. coli, read-out: 2-MIC-.
Where [7] appears, read: Table 2, MIC of Component 2 alone against MRSA.
The mark [8] stands for this setting: Table 2, MIC of Component 2 alone against MRSA, read-out: 2-MIC-.
Setting [9] is: Table 2, MIC of Component 1 alone against MRSA, read-out: 1-MIC-.

For the compound 2-hydroxypropyl-α-cyclodextrin, in experiment [1] (setting [4]), the 3-MIC- is 1001 ppm. Further, in experiment [1] (Table 5, Component 3 alone), the 3-MIC-MRSA turned out to be 1001 ppm.
For `Oc1cccc2cccnc12` [8-hydroxyquinoline], the MIC turned out to be 50 µg/mL in experiment [2] (read-out: 3-MIC-); 1.56 µg/mL in experiment [1] (MRSA, read-out: 3-MIC-); 1.56 µg/mL in experiment [1] (MRSA, read-out: 3-MIC-MRSA).
Regarding `C=CCN=C=S` [Allyl isothiocyanate, allyl isothiocyanate], the MIC was 1000 µg/mL in experiment [2] (setting [5]); 1000 µg/mL in experiment [2] (setting [6]); 1000 µg/mL in experiment [1] (MRSA, read-out: 1-MIC-); 1000 µg/mL in experiment [1] (MRSA, read-out: 2-MIC-); 1000 µg/mL in experiment [1] (MRSA, read-out: 2-MIC-MRSA).
Turning to `CC(O)(P(=O)(O)O)P(=O)(O)O` [HEDP, 1-hydroxyethylidene-1,1-diphosphonic acid], the 3-MIC- in experiment [2] (Table 3, MIC of Component 3 alone against E. coli) was 1001 ppm; in experiment [1] (setting [4]), 1001 ppm. Further, the 3-MIC-MRSA in experiment [1] (Table 5, Component 3 alone) was determined as 1001 ppm.
Regarding `C=C(C)[C@H]1CC=C(C)CC1` [Limonene, limonene], the 1-MIC- in experiment [2] (Table 3, MIC of Component 1 alone against E. coli) turned out to be 1000 ppm; in experiment [1] (Table 2, MIC of Component 1 alone against MRSA), 1001 ppm. The 2-MIC- in experiment [2] (Table 3, MIC of Component 2 alone against E. coli) is recorded as 1001 ppm; in experiment [1] (setting [7]) it was 1001 ppm. Also, the 1-MIC-MRSA in experiment [1] (Table 5, Comp. 1 alone) turned out to be 1001 ppm.
Regarding `CN(C)c1ccc2nc3ccc(=[N+](C)C)cc-3sc2c1` [Methylene blue, methylene blue], the results for the MIC in experiment [2] (setting [5]), in experiment [2] (setting [6]) and in experiment [1] (setting [8]) were 1000 µg/mL, 1000 µg/mL and 25 µg/mL, respectively.
Consider `CCCCCCCCCCCCN(CCCN)CCCN` [N,N-bis(3-aminopropyl)-dodecylamine, N,N-bis-(3-aminopropyl)dodecylamine], for which the MIC in experiment [2] (setting [5]) came out at 25 µg/mL; in experiment [2] (setting [6]) it was 25 µg/mL; in experiment [1] (setting [9]) it was 12.5 µg/mL; in experiment [1] (setting [8]) it was 12.5 µg/mL.
In the case of `C=CC(C)(O)CCC=C(C)CCC=C(C)C` (stereo not shown) [Nerolidol, nerolidol], the MIC was determined as 1000 µg/mL in experiment [2] (setting [5]); 500 µg/mL in experiment [1] (MRSA, Table 5, Comp. 1 alone, read-out: 1-MIC-MRSA); 500 µg/mL in experiment [1] (setting [9]).
In the case of `CCCCCCCCO[C@@H]1O[C@H](CO)[C@@H](O)[C@H](O)[C@H]1O` [Octyl glucoside, octyl glucoside], the 2-MIC- in experiment [1] (setting [7]) stood at 1001 ppm.
Turning to `O=C(/C=C/C=C/c1ccc2c(c1)OCO2)N1CCCCC1` [Piperine, piperine], the MIC in experiment [2] (setting [5]) came out at 1000 µg/mL; in experiment [2] (setting [6]), 1000 µg/mL; in experiment [1] (MRSA, read-out: 1-MIC-) it was 1000 µg/mL; in experiment [1] (MRSA, read-out: 2-MIC-), 1000 µg/mL; in experiment [1] (MRSA, read-out: 2-MIC-MRSA), 1000 µg/mL.
As for `[O-][n+]1ccccc1S` [Pyrithione, pyrithione], the MIC in experiment [2] (read-out: 2-MIC-) is 6.25 µg/mL; in experiment [1] (MRSA, read-out: 2-MIC-) it was 0.79 µg/mL; in experiment [1] (MRSA, read-out: 2-MIC-MRSA) it was 0.79 µg/mL.
Turning to `O=C(O)c1ccccc1O` [Salicylic acid, salicylic acid], the MIC in experiment [2] (Table 3, MIC of Component 3 alone against E. coli, read-out: 3-MIC-) was 1000 µg/mL; in experiment [1] (MRSA, Table 5, Component 3 alone, read-out: 3-MIC-MRSA), 1000 µg/mL; in experiment [1] (Table 2, MIC of Component 3 alone against MRSA, read-out: 3-MIC-) it was 1000 µg/mL.
For `O=C(O)CN(CCN(CC(=O)O)CC(=O)O)CC(=O)O.[K]` [Sample K2EDTA, potassium ethylenediaminetetraacetic acid], the MIC was 1000 µg/mL in experiment [2] (read-out: 3-MIC-); 500 µg/mL in experiment [1] (MRSA, read-out: 3-MIC-); 500 µg/mL in experiment [1] (MRSA, read-out: 3-MIC-MRSA).
Turning to `OCC1CCCO1` (stereo not shown) [THFA, tetrahydrofurfuryl alcohol], the MIC in experiment [1] (MRSA, read-out: Other-MIC-) came out at 500 µg/mL.
With `CC(=O)c1c(O)c(C)c(O)c2c1OC1=CC(=O)C(C(C)=O)C(=O)C12C` (stereo not shown) [Usnic Acid, usnic acid], the MIC in experiment [2] (setting [5]) came out at 1000 µg/mL; in experiment [2] (setting [6]), 1000 µg/mL; in experiment [1] (MRSA, read-out: 1-MIC-), 6.25 µg/mL; in experiment [1] (MRSA, read-out: 2-MIC-), 6.25 µg/mL; in experiment [1] (MRSA, read-out: 2-MIC-MRSA), 6.25 µg/mL.
`C[C@H]1c2cccc(O)c2C(O)=C2C(=O)[C@]3(O)C(O)=C(C(N)=O)C(=O)[C@@H](N(C)C)[C@@H]3[C@@H](O)[C@@H]21` [doxy, doxycycline]: in experiment [3], the “MIC Ab alone (B) QB” value turned out to be 50 µg/mL.
The same measure, in the same setting: to `CN(C)[C@@H]1C(=O)C(C(N)=O)=C(O)[C@@]2(O)C(=O)C3=C(O)c4c(O)cccc4[C@@](C)(O)[C@H]3C[C@@H]12` [tetra, tetracycline] belongs 400 µg/mL.
gentamicin: the “MIC Ab alone (B) QB” value in experiment [3] turned out to be 100 µg/mL.
